The record followed here is patent US10231967B2, “Compounds and their use as BACE inhibitors” (ASTRAZENECA AB, priority 2010, dated 2019).

The structures appear in SMILES notation.

The IC50 is the point on the concentration scale where inhibition reaches its midpoint. Low readings indicate greater potency, high ones weaker potency.

For the first test, the system named is sAPPβ release in SH-SY5Y cells. The test can be described thus: sAPPβ release assay. Type of test: cell-based. Conditions: Homo sapiens, SH-SY5Y, 17 h, compounds incubated 17 h, MSD detection. On the procedure: Thaw cells and seed at a conc. of around 10000 cells/well in DMEM/F-12 with Glutamax, 10% FCS and 1% non-essential amino acids to a 384-well tissue culture treated plate, 100 μL cell susp/well. […] The cell medium was removed, followed by addition of 30 μL compound diluted in DMEM/F-12 with Glutamax, 10% FCS, 1% non-essential amino acids and 1% PeSt to a final conc. of 1% DMSO. The compounds were incubated with the cells for 17 h (overnight) at 37° C., 5% CO2. Meso Scale Discovery (MSD) plates were used for the detection of sAPPβ release. MSD sAPPβ plates were blocked in 1% BSA in Tris wash buffer (40 μL/well) for 1 h on shake at r.t. and washed 1 time in Tris wash buffer (40 μL/well). 20 μL of medium was transferred to the pre-blocked and washed MSD sAPPβ microplates, and the cell plates were further used in an ATP assay to measure cytotoxicity. The MSD plates were incubated with shaking at r.t. for 2 h and the media discarded. 10 μL detection antibody was added (1 nM) per well followed by incubation with shaking at r.t. for 2 h and then discarded. 40 μL Read Buffer was added per well and the plates were read in a SECTOR Imager.
Turning to `COC1CCC2(CC1)Cc1ccc(Br)cc1[C@@]21N=C(C)C(N)=N1` (single isomer, unassigned) [Example 19 Isomer 1], the half-maximal inhibitory concentration (IC50) worked out at 18 nM.
Regarding `CC1=NC2(CC(C3CCCOC3)Oc3ccc(Br)cc32)N=C1N` (single isomer, unassigned) [Example 47 Isomer 2, 6-Bromo-5′-methyl-2-(tetrahydro-2H-pyran-3-yl)spiro[chromane-4,2′-imidazole]-4′-amine], the IC50 stood at 657 nM.
Same read-out and setting: for `CC1=NC2(CCOc3ccc(NC(=O)c4ccc(Cl)cn4)cc32)N=C1N` (stereo not shown) [Example 13a, N-(4′-Amino-5′-methylspiro[chroman-4,2′-imidazole]-6-yl)-5-chloropicolinamide] the value was 501 nM; for `CC1=NC2(CCOc3ccc(NC(=O)c4ncc(Cl)cc4Cl)cc32)N=C1N` (stereo not shown) [Example 13i, N-(4′-Amino-5′-methylspiro[chroman-4,2′-imidazole]-6-yl)-3,5-dichloropicolinamide], 160 nM.
In turn, `CO[C@H]1CC[C@]2(CC1)Cc1ccc(C#CC(C)(C)C)cc1C21N=C(C)C(N)=N1` (stereo partly shown) [Example 20h] had an IC50 of 7.1 nM.
`CO[C@H]1CC[C@]2(CC1)Cc1ccc(NC(=O)c3ccc(C(F)(F)F)cn3)cc1C21N=C(C)C(N)=N1` (stereo partly shown) [Example 20k, N-[(1r,4r)-4″-Amino-4-methoxy-5″-methyl-3′H-dispiro[cyclohexane-1,2′-indene-1′,2″-imidazol]-6′-yl]-5-(trifluoromethyl)pyridine-2-carboxamide] yielded an IC50 of 8.6 nM.
The same measure, in the same setting: next, `CO[C@H]1CC[C@]2(CC1)Cc1ccc(NC(=O)c3ncc(Cl)cc3Cl)cc1C21N=C(C)C(N)=N1` (stereo partly shown) [Example 20o, N-[(1r,4r)-4″-Amino-4-methoxy-5″-methyl-3′H-dispiro[cyclohexane-1,2′-indene-1′,2″-imidazol]-6′-yl]-3,5-dichloropyridine-2-carboxamide]: 9.2 nM; `CO[C@H]1CC[C@]2(CC1)Cc1ccc(NC(=O)c3ccc(Cl)cn3)cc1C21N=C(C)C(N)=N1` (stereo partly shown) [Example 20q, N-[(1r,4r)-4″-Amino-4-methoxy-5″-methyl-3′H-dispiro[cyclohexane-1,2′-indene-1′,2″-imidazol]-6′-yl]-5-chloropyridine-2-carboxamide]: 3.8 nM; `CO[C@H]1CC[C@]2(CC1)Cc1ccc(OCCC(F)(F)F)cc1C21N=C(C)C(N)=N1` (stereo partly shown) [Example 20u, (1r,4r)-4-methoxy-5″-methyl-6′-(3,3,3-trifluoropropoxy)-3′H-dispiro[cyclohexane-1,2′-indene-1′,2″-imidazol]-4″-amine]: 0.63 nM.
In the case of `CC1=NC2(N=C1N)c1cc(Br)ccc1CC21CCC(F)(F)CC1` (stereo not shown) [Example 27, 6′-Bromo-4,4-difluoro-5″-methyl-3′H-dispiro[cyclohexane-1,2′-indene-1′,2″-imidazol]-4″-amine], half-maximal inhibition (IC50) was put at 399 nM.

Staying with this test, now noted: Homo sapiens, compounds incubated 17 h, MSD detection.
Molecule `CC1=N[C@]2(N=C1N)c1cc(-c3cc(F)cc(C#N)c3)ccc1C[C@]21CC[C@@H](OC(F)F)CC1` (racemic) [Example 105, 3-[(1r,4r)-4″-Amino-4-(difluoromethoxy)-5″-methyl-3′H-dispiro[cyclohexane-1,2′-indene-1′,2″-imidazol]-6′-yl]-5-fluorobenzonitrile] came in with an IC50 of 9.7 nM.
`COc1cc(C#N)cc(-c2ccc3c(c2)[C@@]2(N=C(C)C(N)=N2)[C@]2(CC[C@H](OC(F)F)CC2)C3)c1` (racemic) [Example 106, 3-[(1r,4r)-4″-Amino-4-(difluoromethoxy)-5″-methyl-3′H-dispiro[cyclohexane-1,2′-indene-1′,2″-imidazol]-6′-yl]-5-methoxybenzonitrile]: the IC50 was 1.1 nM.
In the case of `COc1cc(C#N)cc(-c2ccc3c(c2)[C@@]2(N=C(C)C(N)=N2)[C@]2(CC[C@H](OC)CC2)C3)c1` (single isomer, unassigned) [Example 92 Isomer 1], the IC50 stood at 0.27 nM.
The same measure, in the same setting: for `CC1=NC2(CCOc3ccc(-c4cc(Cl)cc(Cl)c4)cc32)N=C1N` (stereo not shown) [Example 1, 6-(3,5-Dichlorophenyl)-5′-methylspiro[chroman-4,2′-imidazol]-4′-amine] the value was 587 nM.
For the molecule `CC1=NC2(CCOc3ccc(-c4cncc(Cl)c4)cc32)N=C1N` (stereo not shown) [Example 2, 6-(5-Chloropyridin-3-yl)-5′-methylspiro[chroman-4,2′-imidazol]-4′-amine], the midpoint of inhibition, the IC50, lay at 941 nM.
On the same count and under the same terms, for `CC1=NC2(CCOc3ccc(-c4cc(F)cc(F)c4)cc32)N=C1N` (stereo not shown) [Example 3, 6-(3,5-Difluorophenyl)-5′-methylspiro[chroman-4,2′-imidazol]-4′-amine] the value was 2880 nM; for `CC1=NC2(CCOc3ccc(NC(=O)c4ccc(C(F)(F)F)cn4)cc32)N=C1N` (stereo not shown) [Example 13c, N-(4′-Amino-5′-methylspiro[chroman-4,2′-imidazole]-6-yl)-5-(trifluoromethyl)picolinamide], 463 nM.
Same read-out and setting: next, `CC#CCOc1ccc(C(=O)Nc2ccc3c(c2)C2(CCO3)N=C(C)C(N)=N2)nc1` (stereo not shown) [Example 13d, N-(4′-amino-5′-methylspiro[chroman-4,2′-imidazole]-6-yl)-5-(but-2-ynyloxy)picolinamide]: 239 nM; `CC#CCOc1cnc(C(=O)Nc2ccc3c(c2)C2(CCO3)N=C(C)C(N)=N2)cn1` (stereo not shown) [Example 13e, N-(4′-Amino-5′-methylspiro[chroman-4,2′-imidazole]-6-yl)-5-(but-2-ynyloxy)pyrazine-2-carboxamide]: 106 nM; `CC1=NC2(N=C1N)c1cc(Br)ccc1CC21CCC(OC(F)F)CC1` (stereo not shown) [Example 15, 6′-Bromo-4-(difluoromethoxy)-5″-methyl-3′H-dispiro[cyclohexane-1,2′-indene-1′,2″-imidazol]-4″-amine]: 46 nM.
As for `CC#Cc1ccnc(-c2ccc3c(c2)C2(N=C(C)C(N)=N2)[C@]2(CC[C@H](OC)CC2)C3)c1` (stereo partly shown) [Example 20b, (1r,4r)-4-Methoxy-5″-methyl-6′-[4-(prop-1-yn-1-yl)pyridin-2-yl]-3′H-dispiro[cyclohexane-1,2′-indene-1′,2″-imidazol]-4″-amine], the IC50 amounted to 0.78 nM.
The molecule `CO[C@H]1CC[C@]2(CC1)Cc1ccc(-c3cc(C#N)cc(C#N)c3)cc1C21N=C(C)C(N)=N1` (stereo partly shown) [Example 20c, 5-[(1r,4r)-4″-Amino-4-methoxy-5″-methyl-3′H-dispiro[cyclohexane-1,2′-indene-1′,2″-imidazol]-6′-yl]benzene-1,3-dicarbonitrile] yielded an IC50 of 1.7 nM.
`CO[C@H]1CC[C@]2(CC1)Cc1ccc(-c3cncc(F)c3)cc1C21N=C(C)C(N)=N1` (stereo partly shown) [Example 20f, (1r,4r)-6′-(5-Fluoropyridin-3-yl)-4-methoxy-5″-methyl-3′H-dispiro[cyclohexane-1,2′-indene-1′,2″-imidazol]-4″-amine] returned an IC50 of 3.3 nM.
Same read-out and setting: next, `CO[C@H]1CC[C@]2(CC1)Cc1ccc(NC(=O)c3ncc(Br)cn3)cc1C21N=C(C)C(N)=N1` (stereo partly shown) [Example 20j, N-[(1r,4r)-4″-Amino-4-methoxy-5″-methyl-3′H-dispiro[cyclohexane-1,2′-indene-1′,2″-imidazol]-6′-yl]-5-bromopyrimidine-2-carboxamide]: 91 nM.
In the case of `CO[C@H]1CC[C@]2(CC1)Cc1ccc(NC(=O)c3oc4cc(Cl)ccc4c3C)cc1C21N=C(C)C(N)=N1` (stereo partly shown) [Example 20n, N-[(1r,4r)-4″-Amino-4-methoxy-5″-methyl-3′H-dispiro[cyclohexane-1,2′-indene-1′,2″-imidazol]-6′-yl]-6-chloro-3-methyl-1-benzofuran-2-carboxamide], inhibition was half-maximal at 3.7 nM (IC50).
For the molecule `CO[C@H]1CC[C@]2(CC1)Cc1ccc(OCCCF)cc1C21N=C(C)C(N)=N1` (stereo partly shown) [Example 20v], the midpoint of inhibition, the IC50, lay at 1.2 nM.
In turn, `CO[C@H]1CC[C@]2(CC1)Cc1ccc(NC(=O)c3ncc(Cl)cc3C)cc1C21N=C(C)C(N)=N1` (stereo partly shown) [Example 20w, N-[(1r,4r)-4″-Amino-4-methoxy-5″-methyl-3′H-dispiro[cyclohexane-1,2′-indene-1′,2″-imidazol]-6′-yl]-5-chloro-3-methylpyridine-2-carboxamide] gave an IC50 of 5.7 nM.
Regarding `CO[C@H]1CC[C@]2(CC1)Cc1ccc(NC(=O)c3ccc(F)cn3)cc1C21N=C(C)C(N)=N1` (stereo partly shown) [Example 20x, N-[(1r,4r)-4″-Amino-4-methoxy-5″-methyl-3′H-dispiro[cyclohexane-1,2′-indene-1′,2″-imidazol]-6′-yl]-5-fluoropyridine-2-carboxamide], it took 29 nM to reach half-maximal inhibition (IC50).
Regarding `CC#Cc1cc(-c2ccc3c(c2)C2(N=C(C)C(N)=N2)[C@]2(CC[C@H](OC)CC2)C3)ccn1` (stereo partly shown) [Example 20y, (1r,4r)-4-Methoxy-5″-methyl-6′-[2-(prop-1-yn-1-yl)pyridin-4-yl]-3′H-dispiro[cyclohexane-1,2′-indene-1′,2″-imidazol]-4″-amine], the IC50 came out at 1.2 nM.
For `CC1=NC2(N=C1N)c1cc(-c3cccc(Cl)c3)ccc1CC21CCOCC1` (stereo not shown) [Example 26a, 6′-(3-Chlorophenyl)-5-methyl-2″,3″,5″,6″-tetrahydro-3′H-dispiro[imidazole-2,1′-indene-2′,4″-pyran]-4-amine], it took 53 nM to reach half-maximal inhibition (IC50).
Turning to `CC1=NC2(N=C1N)c1cc(-c3ccc(F)c(Cl)c3)ccc1CC21CCOCC1` (stereo not shown) [Example 26c, 6′-(3-Chloro-4-fluorophenyl)-5-methyl-2″,3″,5″,6″-tetrahydro-3′H-dispiro[imidazole-2,1′-indene-2′,4″-pyran]-4-amine], inhibition was half-maximal at 140 nM (IC50).
